Among the data in patent US10894052B2, “Heterocyclic inhibitors of ATR kinase” (Board of Regents, The University of Texas System, priority 2018, dated 2021) are IC50 values, retold here.

The target in one experiment is ATR/ATRIP complex (Homo sapiens (Human), UniProt Q13535). In words: ATR/ATRIP enzymatic assay (Caliper-based). The experiment is classed as biochemical. The settings on record: ATR/ATRIP enzyme; FAM-labeled RAD17 peptide, ATP. The procedure:
(§1) The ability of the compounds of Formula I to inhibit the catalytic activity of the ATR/ATRIP complex was measured in a Caliper-based assay, and in HT-29 cells in an Alphascreen assay, following the ATR-mediated phosphorylation of CHK1, described below.
Human full-length FLAG-TEV-ATR and His6-ATRIP were co-expressed in HEK293 cells. […] The sample was loaded into a column, and then washed with buffer A three times. Protein was subsequently eluted with 2 ml of buffer B (buffer A+200 μg/ml 3×FLAG peptide).
The ability of new chemical matter to inhibit the ATR catalytic activity in this ATR/ATRIP complex was assessed using a Caliper-based assay. A 2× enzyme solution (i.e., 4 nM enzyme) was prepared using 1× Kinase Reaction Buffer (25 mM HEPES pH 8, 0.0055% Brij-35, 10 mM MnCl2, and 1 mM DTT). […] 10 μL of the 2× enzyme solution was transferred to an assay plate containing 60 nL of test compound (from a 3× serial dilution) in 100% DMSO. Following a 30-min incubation at 28° C., 10 μL of the 2× peptide solution was then transferred to the same assay plate. The reaction incubated at 28° C. for 6 h. After adding 30 μL stop buffer (100 mM HEPES pH 7.5, 0.015% Brij-35, 0.2% Coating-3 Reagent (PerkinElmer, catalog #PN760050), and 50 mM EDTA), data were collected on a Caliper instrument. Conversion values were converted to inhibition values via the following equation: % inhibition=(max−conversion)/(max−min)*100, wherein “max” corresponds to the DMSO control, and “min” corresponds to the low control. IC50 values were calculated using the following equation in XLFit: Y=Bottom+(Top−Bottom)/1+(IC50/X)^HillSlope).

Experiment [1] concerns ATR-driven phosphorylation of Chk1 kinase at Serine 345 in HT-29 cells. Kind of experiment: pCHK1 cellular assay (CHK1 p-Ser345 AlphaScreen SureFire). The format is cell-based. The following applies: HT-29 colorectal adenocarcinoma cells, 4-nitroquinoline N-oxide 12 μM, read-out: Cell IC50 (pCHK1). As to the method:
as §1
Cellular IC50 for the inhibitors of ATR described herein were measured in HT-29 colorectal adenocarcinoma cells.
The microplate was incubated overnight (approximately 20 hours) at 37° C. with 5% CO2 and ambient O2. Stock solutions of the test compounds were prepared in 100% DMSO (Sigma, Catalog #D2650) and serially diluted 1:3 using 100% DMSO. Compounds were additionally diluted 1:33 in culture medium, and 10 μL/well were transferred to the tissue culture plate. Following the compound addition, the microplate was incubated at 37° C. for 90 minutes. […] The cells were then washed with PBS and lysed using 10 μL/well […]® Kit lysis buffer diluted to 1× in water (PerkinElmer Catalog #TGRCHK1S50K), with mixing on an orbital shaker at 500 rpm for 20 min at room temperature. Lysates were frozen at −20 OC overnight.
The pCHK1 ALPHASCREEN® signal was measured using an ENVISION® plate reader (PerkinElmer). IC50 values were calculated using a four-parameter logistic curve fit using Genedata Screener software. Percent of control for each compound concentration was calculated by the following formula: 100*(Compound−Min)/(Max−Min), where “Max” is the high control, DMSO, and “Min” is the low control, 5 μM ATR inhibitor.
A general note: Alpha assays give light when donor and acceptor beads are brought close together.

Each structure is given as a SMILES string. pIC50: −log10 of the molar value. Like-named read-outs stand apart in the source and are kept apart here.

Chain of ATR/ATRIP complex (Q13535 whole entry): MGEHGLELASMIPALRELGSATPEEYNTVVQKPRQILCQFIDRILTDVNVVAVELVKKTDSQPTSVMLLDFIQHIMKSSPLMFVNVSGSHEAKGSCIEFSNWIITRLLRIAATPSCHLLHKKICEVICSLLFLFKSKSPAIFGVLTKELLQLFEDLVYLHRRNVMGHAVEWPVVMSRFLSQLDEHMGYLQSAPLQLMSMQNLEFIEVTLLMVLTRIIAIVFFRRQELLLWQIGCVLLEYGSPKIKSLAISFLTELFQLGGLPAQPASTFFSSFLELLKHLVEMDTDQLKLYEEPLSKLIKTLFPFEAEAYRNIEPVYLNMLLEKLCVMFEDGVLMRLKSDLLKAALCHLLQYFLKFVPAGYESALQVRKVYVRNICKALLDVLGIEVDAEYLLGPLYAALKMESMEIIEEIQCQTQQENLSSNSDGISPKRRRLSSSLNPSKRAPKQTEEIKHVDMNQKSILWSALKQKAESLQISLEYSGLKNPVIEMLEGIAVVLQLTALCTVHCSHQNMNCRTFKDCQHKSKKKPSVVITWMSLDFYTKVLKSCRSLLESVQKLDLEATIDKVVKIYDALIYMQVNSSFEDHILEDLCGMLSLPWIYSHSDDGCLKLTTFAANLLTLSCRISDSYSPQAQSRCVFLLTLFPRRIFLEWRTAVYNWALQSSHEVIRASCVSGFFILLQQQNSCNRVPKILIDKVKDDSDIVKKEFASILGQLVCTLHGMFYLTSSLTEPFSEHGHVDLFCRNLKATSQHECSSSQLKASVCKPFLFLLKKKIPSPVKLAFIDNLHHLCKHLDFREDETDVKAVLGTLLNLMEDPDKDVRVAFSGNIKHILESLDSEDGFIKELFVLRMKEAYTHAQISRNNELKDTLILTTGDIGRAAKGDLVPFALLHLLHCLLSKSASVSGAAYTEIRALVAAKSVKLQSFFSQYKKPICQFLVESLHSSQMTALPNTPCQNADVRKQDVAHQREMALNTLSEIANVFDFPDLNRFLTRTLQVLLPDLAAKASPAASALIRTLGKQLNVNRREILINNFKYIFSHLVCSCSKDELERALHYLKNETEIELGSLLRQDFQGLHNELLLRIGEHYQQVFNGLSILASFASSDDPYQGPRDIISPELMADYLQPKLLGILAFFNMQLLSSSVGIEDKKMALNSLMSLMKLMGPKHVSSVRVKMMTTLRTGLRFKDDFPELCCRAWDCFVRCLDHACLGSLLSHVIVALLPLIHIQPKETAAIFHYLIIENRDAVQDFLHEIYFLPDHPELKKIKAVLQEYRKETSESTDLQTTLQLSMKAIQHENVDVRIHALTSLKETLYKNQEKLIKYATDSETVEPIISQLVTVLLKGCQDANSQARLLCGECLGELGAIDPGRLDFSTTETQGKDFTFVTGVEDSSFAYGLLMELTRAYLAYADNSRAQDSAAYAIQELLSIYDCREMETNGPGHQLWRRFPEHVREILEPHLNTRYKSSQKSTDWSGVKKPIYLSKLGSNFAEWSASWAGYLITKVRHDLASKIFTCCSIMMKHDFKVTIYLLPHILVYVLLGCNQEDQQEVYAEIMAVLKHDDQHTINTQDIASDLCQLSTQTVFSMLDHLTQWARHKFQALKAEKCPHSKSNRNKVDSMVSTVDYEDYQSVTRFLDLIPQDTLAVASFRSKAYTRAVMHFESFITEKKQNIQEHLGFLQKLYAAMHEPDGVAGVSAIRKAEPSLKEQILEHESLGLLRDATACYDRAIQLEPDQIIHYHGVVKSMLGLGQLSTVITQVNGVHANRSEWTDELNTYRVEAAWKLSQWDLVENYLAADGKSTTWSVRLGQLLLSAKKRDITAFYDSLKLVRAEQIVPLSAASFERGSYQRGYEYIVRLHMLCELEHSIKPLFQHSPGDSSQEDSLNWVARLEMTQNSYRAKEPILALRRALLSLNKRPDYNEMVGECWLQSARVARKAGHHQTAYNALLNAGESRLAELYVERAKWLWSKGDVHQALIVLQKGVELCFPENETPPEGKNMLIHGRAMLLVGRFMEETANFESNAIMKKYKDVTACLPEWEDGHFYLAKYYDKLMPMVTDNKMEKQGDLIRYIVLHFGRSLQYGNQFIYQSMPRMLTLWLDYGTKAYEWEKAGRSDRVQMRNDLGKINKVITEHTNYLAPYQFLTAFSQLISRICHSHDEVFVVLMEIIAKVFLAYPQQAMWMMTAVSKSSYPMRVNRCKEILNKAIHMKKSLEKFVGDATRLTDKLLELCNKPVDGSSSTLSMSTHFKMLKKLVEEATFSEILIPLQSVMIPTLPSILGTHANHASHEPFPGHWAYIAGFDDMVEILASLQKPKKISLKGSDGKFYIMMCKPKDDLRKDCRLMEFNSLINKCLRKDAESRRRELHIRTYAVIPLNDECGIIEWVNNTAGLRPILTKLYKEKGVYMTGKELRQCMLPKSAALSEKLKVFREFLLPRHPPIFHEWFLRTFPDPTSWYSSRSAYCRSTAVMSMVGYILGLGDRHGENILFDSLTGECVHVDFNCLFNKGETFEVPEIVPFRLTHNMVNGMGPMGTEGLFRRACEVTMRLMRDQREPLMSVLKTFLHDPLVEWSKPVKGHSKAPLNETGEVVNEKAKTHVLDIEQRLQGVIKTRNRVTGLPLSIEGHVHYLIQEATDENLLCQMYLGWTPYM
Chain of ATR/ATRIP complex (Q8WXE1 whole entry partner): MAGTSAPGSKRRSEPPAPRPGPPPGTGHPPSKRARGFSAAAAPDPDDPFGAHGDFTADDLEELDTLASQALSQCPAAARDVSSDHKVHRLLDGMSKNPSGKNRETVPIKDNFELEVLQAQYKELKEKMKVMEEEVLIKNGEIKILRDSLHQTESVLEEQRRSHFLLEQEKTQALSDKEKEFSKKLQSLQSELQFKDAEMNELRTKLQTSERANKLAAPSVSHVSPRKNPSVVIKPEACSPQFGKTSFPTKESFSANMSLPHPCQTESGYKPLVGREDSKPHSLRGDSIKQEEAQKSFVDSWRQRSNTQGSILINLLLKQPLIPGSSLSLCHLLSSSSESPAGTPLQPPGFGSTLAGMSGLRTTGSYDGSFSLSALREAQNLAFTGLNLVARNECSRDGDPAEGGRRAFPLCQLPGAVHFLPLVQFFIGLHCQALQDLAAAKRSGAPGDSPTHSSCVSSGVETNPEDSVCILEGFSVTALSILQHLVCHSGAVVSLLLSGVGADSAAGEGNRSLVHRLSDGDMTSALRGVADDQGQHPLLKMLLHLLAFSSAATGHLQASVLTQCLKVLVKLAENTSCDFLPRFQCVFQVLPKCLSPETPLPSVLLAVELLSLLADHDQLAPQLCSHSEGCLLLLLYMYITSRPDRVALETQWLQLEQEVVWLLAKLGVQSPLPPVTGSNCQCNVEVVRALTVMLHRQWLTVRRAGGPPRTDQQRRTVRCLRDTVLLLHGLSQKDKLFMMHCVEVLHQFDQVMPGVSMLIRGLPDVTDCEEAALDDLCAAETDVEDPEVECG

Consider `C[C@@H]1COCCN1c1cc(N=S(C)(C)=O)nc(-c2ccnc3[nH]cnc23)c1` [Example 2, (R)-((6-(3H-Imidazo[4,5-b]pyridin-7-yl)-4-(3-methylmorpholino)pyridin-2-yl)imino)dimethyl-λ^6-sulfanone], for which the pIC50 against ATR/ATRIP complex was 6.93; in experiment [1] (Homo sapiens) it was 6.09. For `Cc1nc2cccnc2n1-c1cc(N2CCOC[C@H]2C)cc(N=S(C)(C)=O)n1` [Example 4, (R)-Dimethyl((6-(2-methyl-3H-imidazo[4,5-b]pyridin-3-yl)-4-(3-methylmorpholino)pyridin-2-yl)imino)-λ^6-sulfanone], in that order: 6.01 and 5.00.

For `C[C@@H]1COCCN1c1cc(N=S(C)(C)=O)nc(-n2cnc3cccnc32)c1` [Example 5, (R)-((6-(3H-Imidazo[4,5-b]pyridin-3-yl)-4-(3-methylmorpholino)pyridin-2-yl)imino)dimethyl-λ^6-sulfanone], the pIC50 at ATR/ATRIP complex is 7.36; in experiment [1] (Homo sapiens) it was 5.00. Taken in the same sequence, the figures for `C[C@@H]1COCCN1c1cc(N=S(C)(C)=O)nc(-n2c(C(F)F)nc3ccccc32)c1` [Example 6, (R)-((6-(2-(Difluoromethyl)-1H-benzo[d]imidazol-1-yl)-4-(3-methylmorpholino)pyridin-2-yl)imino)dimethyl-λ^6-sulfanone] were 8.30 and 5.63. For `C[C@@H]1COCCN1c1cc(N=S(C)(C)=O)nc(-n2c(CO)nc3ccccc32)c1` [Example 7, (R)-((6-(2-(Hydroxymethyl)-1H-benzo[d]imidazol-1-yl)-4-(3-methylmorpholino)pyridin-2-yl)imino)dimethyl-λ^6-sulfanone], in that order: 7.80 and 5.06. Taken in the same sequence, the figures for `C[C@@H]1COCCN1c1cc(N=S(C)(C)=O)nc(-n2c(CF)nc3ccccc32)c1` [Example 8, (R)-((6-(2-(Fluoromethyl)-1H-benzo[d]imidazol-1-yl)-4-(3-methylmorpholino)pyridin-2-yl)imino)dimethyl-λ^6-sulfanone] were 8.30 and 5.48.

For `C[C@@H]1COCCN1c1cc(N=S(C)(C)=O)nc(-n2c(N)nc3ccccc32)c1` [Example 9, (R)-((6-(2-Amino-1H-benzo[d]imidazol-1-yl)-4-(3-methylmorpholino)pyridin-2-yl)imino)dimethyl-λ^6-sulfanone], the pIC50 was 9.00 against ATR/ATRIP complex and 6.80 in experiment [1] (Homo sapiens). As to `CNc1nc2ccccc2n1-c1cc(N2CCOC[C@H]2C)cc(N=S(C)(C)=O)n1` [Example 10, (R)-Dimethyl((6-(2-(methylamino)-1H-benzo[d]imidazol-1-yl)-4-(3-methylmorpholino)pyridin-2-yl)imino)-λ^6-sulfanone], the pIC50 at ATR/ATRIP complex is 9.00; in experiment [1] (Homo sapiens), 7.46. Taken in the same sequence, the figures for `C[C@@H]1COCCN1c1cc(N=S(C)(C)=O)nc(-n2cnc3ccccc32)c1` [Example 11, (R)-((6-(1H-benzo[d]imidazol-1-yl)-4-(3-methylmorpholino)pyridin-2-yl)imino)dimethyl-λ^6-sulfanone] were 8.05 and 5.50.

For `Cc1cc2c(-c3cc(N4CCOC[C@H]4C)cc(N=S(C)(C)=O)n3)ccnc2[nH]1` [Example 12, (R)-dimethyl((6-(2-methyl-1H-pyrrolo[2,3-b]pyridin-4-yl)-4-(3-methylmorpholino)pyridin-2-yl)imino)-λ^6-sulfanone], the results for the pIC50 (against ATR/ATRIP complex; in experiment [1] (Homo sapiens)) were 7.96 and 7.00, respectively.

For `C[C@@H]1COCCN1c1cc(N=S(C)(C)=O)nc(-c2cncc3[nH]ccc23)c1` [Example 13, (R)-dimethyl((4-(3-methylmorpholino)-6-(1H-pyrrolo[2,3-c]pyridin-4-yl)pyridin-2-yl)imino)-λ^6-sulfanone], the pIC50 at ATR/ATRIP complex is 8.05; in experiment [1] (Homo sapiens), 6.63.

On to `COc1cc(-c2cc(N3CCOC[C@H]3C)cc(N=S(C)(C)=O)n2)c2cc[nH]c2n1` [Example 14, (R)-((6-(6-methoxy-1H-pyrrolo[2,3-b]pyridin-4-yl)-4-(3-methylmorpholino)pyridin-2-yl)imino)dimethyl-λ^6-sulfanone], for which the pIC50 at ATR/ATRIP complex was 7.32; in experiment [1] (Homo sapiens) it was 5.44. For `C[C@@H]1COCCN1c1cc(N=S(C)(C)=O)nc(-c2ccnc(N)c2)c1` [Example 15, (R)-((2′-amino-4-(3-methylmorpholino)-[2,4′-bipyridin]-6-yl)imino)dimethyl-λ^6-sulfanone], in that order: 6.43 and 6.06. Take `C[C@@H]1COCCN1c1cc(N=S(C)(=O)C2COC2)nc(-c2ccnc3[nH]ccc23)c1` (stereo partly drawn) [Example 17, methyl((4-((R)-3-methylmorpholino)-6-(1H-pyrrolo[2,3-b]pyridin-4-yl)pyridin-2-yl)imino)(oxetan-3-yl)-λ^6-sulfanone]: the pIC50 on ATR/ATRIP complex was 7.92; in experiment [1] (Homo sapiens) it was 6.20. Taken in the same sequence, the figures for `CCOc1cc(-c2cc(N3CCOC[C@H]3C)cc(N=S(C)(C)=O)n2)c2cc[nH]c2n1` [Example 18, (R)-((6-(6-ethoxy-1H-pyrrolo[2,3-b]pyridin-4-yl)-4-(3-methylmorpholino)pyridin-2-yl)imino)dimethyl-λ^6-sulfanone] were 7.54 and 6.33.

For the compound `CCOc1cc(-c2cc(N3CCOC[C@@H]3C)cc(N=S(C)(C)=O)n2)c2cc[nH]c2n1` [Example 19], the pIC50 on ATR/ATRIP complex was 8.40; in experiment [1], 6.71. For `C[C@@H]1COCCN1c1cc(N=S(C)(C)=O)nc(-c2cccc3[nH]ccc23)c1` [Example 20, (R)-((6-(1H-indol-4-yl)-4-(3-methylmorpholino)pyridin-2-yl)imino)dimethyl-λ^6-sulfanone], the pIC50 is 7.92 at ATR/ATRIP complex and 6.44 in experiment [1] (Homo sapiens). Taken in the same sequence, the figures for `C[C@@H]1COCCN1c1cc(N=S(C)(=O)C2CC2)nc(-c2cncc3[nH]ccc23)c1` (stereo partly drawn) [Example 21, cyclopropyl(methyl)((4-((R)-3-methylmorpholino)-6-(1H-pyrrolo[2,3-c]pyridin-4-yl)pyridin-2-yl)imino)-λ^6-sulfanone] were 8.05 and 6.96. In the case of `C[C@@H]1COCCN1c1cc(N=S(C)(=O)C2CC2)nc(-c2cncc3[nH]ccc23)c1` (some centres unmarked) [Example 22], the pIC50 on ATR/ATRIP complex is 8.22; in experiment [1], 6.55. Take `C[C@@H]1COCCN1c1cc(N=S(C)(C)=O)nc(-c2cccc3[nH]cnc23)c1` [Example 23, (R)-((6-(1H-benzo[d]imidazol-4-yl)-4-(3-methylmorpholino)pyridin-2-yl)imino)dimethyl-λ^6-sulfanone]: the values for the pIC50 (against ATR/ATRIP complex; in experiment [1] (Homo sapiens)) were 8.10 and 6.33, respectively. Turning to `C[C@@H]1COCCN1c1cc(N=S(C)(C)=O)nc(-c2cncn2C)c1` [Example 35, (R)-dimethyl((6-(1-methyl-1H-imidazol-5-yl)-4-(3-methylmorpholino)pyridin-2-yl)imino)-λ^6-sulfanone], the pIC50 in experiment [1] (Homo sapiens) was 5.02. For the compound `C[C@@H]1COCCN1c1cc(N=S(C)(C)=O)nc(-c2cn[nH]c2)c1` [Example 36, (R)-dimethyl((4-(3-methylmorpholino)-6-(1H-pyrazol-4-yl)pyridin-2-yl)imino)-λ^6-sulfanone], the pIC50 in experiment [1] (Homo sapiens) was 5.26. `C[C@@H]1COCCN1c1cc(N=S(C)(C)=O)nc(-c2cc[nH]n2)c1` [Example 37, (R)-dimethyl((4-(3-methylmorpholino)-6-(1H-pyrazol-3-yl)pyridin-2-yl)imino)-λ^6-sulfanone]: the pIC50 in experiment [1] (Homo sapiens) was 5.09. Take `C[C@@H]1COCCN1c1cc(N=S(C)(C)=O)nc(-c2ccn(C)n2)c1` [Example 38, (R)-dimethyl((6-(1-methyl-1H-pyrazol-3-yl)-4-(3-methylmorpholino)pyridin-2-yl)imino)-λ^6-sulfanone]: the pIC50 in experiment [1] (Homo sapiens) is 5.00.

The term pIC50 denotes the IC50 on a negative log10 scale, so that one unit is a factor of ten.
